Values quoted from earlier work in patent US10098922B1, “Increasing telomere length in a cell” (priority 2017, dated 2018).

Columns and labels:
rats = conditions: AC-11 80 mg/kg plus doxorubicin vs doxorubicin only
[1] = system: doxorubicin-induced leukopenia; conditions: rats, oral by gavage

SMILES | Mean heart weight coefficient (rats) | Reversal of doxorubicin-induced leukopenia [1]
COc1cccc2c1C(=O)c1c(O)c3c(c(O)c1C2=O)C[C@@](O)(C(=O)CO)C[C@@H]3O[C@H]1C[C@H](N)[C@H](O)[C@H](C)O1 [doxorubicin] | 0.369%±0.022 | –
N.O=C(O)C1(O)CC(O)C(O)C(O)C1 (stereo not drawn) [QAA] | – | about as effective as C-MED-100®
O=C(O)[C@]1(O)C[C@@H](O)[C@@H](O)[C@H](O)C1 [QA, quinic acid] | – | about as effective as C-MED-100®
